Experimental data published in PMC6203352, “Involvement of VNUT-exocytosis in transient receptor potential vanilloid 4-dependent ATP release from gastrointestinal epithelium” (PLoS ONE, 2018).

Experiments:
Assay type in all cases: cell-based
TRPV4 [1] = target: T1, TRPV4 (Homo sapiens, UniProt Q9HBA0); experiment: inhibition of GSK101 ([…])-induced Ca2+ response, fura-2 imaging in CCD […] cells (endogenous TRPV4)
TRPV4 [2] = target: T1, TRPV4; experiment: fura-2 Ca2+ imaging dose-response in CCD […] cells (endogenous TRPV4), blocked by RN1734
TRPV4 [3] = target: T1, TRPV4; experiment: fura-2 Ca2+ imaging dose-response in CCD […] cells (endogenous TRPV4)

T1 sequence (Q9HBA0 whole entry): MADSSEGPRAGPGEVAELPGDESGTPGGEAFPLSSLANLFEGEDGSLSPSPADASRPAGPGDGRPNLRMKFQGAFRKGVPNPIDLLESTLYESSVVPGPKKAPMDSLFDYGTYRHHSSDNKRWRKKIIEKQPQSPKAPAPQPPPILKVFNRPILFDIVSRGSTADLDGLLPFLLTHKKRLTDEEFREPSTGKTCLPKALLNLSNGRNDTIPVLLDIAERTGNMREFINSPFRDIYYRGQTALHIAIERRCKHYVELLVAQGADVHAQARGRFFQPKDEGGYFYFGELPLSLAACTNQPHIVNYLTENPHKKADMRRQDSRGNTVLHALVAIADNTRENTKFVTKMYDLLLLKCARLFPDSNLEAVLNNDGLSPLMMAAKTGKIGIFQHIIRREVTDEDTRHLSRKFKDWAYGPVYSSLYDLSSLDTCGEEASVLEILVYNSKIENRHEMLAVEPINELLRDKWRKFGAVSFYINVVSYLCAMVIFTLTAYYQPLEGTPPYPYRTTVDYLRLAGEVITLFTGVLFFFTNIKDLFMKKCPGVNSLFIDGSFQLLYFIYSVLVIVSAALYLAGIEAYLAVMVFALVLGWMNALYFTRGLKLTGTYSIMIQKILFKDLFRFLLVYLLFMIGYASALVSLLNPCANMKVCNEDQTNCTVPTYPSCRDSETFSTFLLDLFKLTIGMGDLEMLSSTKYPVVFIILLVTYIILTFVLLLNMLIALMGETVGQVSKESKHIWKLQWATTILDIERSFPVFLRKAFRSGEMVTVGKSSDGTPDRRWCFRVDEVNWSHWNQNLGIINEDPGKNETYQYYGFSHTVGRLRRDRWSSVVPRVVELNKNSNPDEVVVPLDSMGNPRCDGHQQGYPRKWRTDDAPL

In the case of CC(C)NCCN(C(C)C)S(=O)(=O)c1ccc(Cl)cc1Cl [RN1734], the IC50 (TRPV4 [1]) is reported as 0.703 nM.

Molecule CCCCC/C=C\C/C=C\CC1OC1C/C=C\CCCC(=O)OC (stereo not drawn) [8,9-EET methylestel] has an EC50 (TRPV4 [2]) of 111 nM.

CC(C)C[C@H](NC(=O)c1cc2ccccc2s1)C(=O)N1CCN(C(=O)[C@H](CO)NS(=O)(=O)c2ccc(Cl)cc2Cl)CC1 [GSK101, N-((1S)-1-{[4-((2S)-2-{[(2,4-dichlorophenyl)sulfonyl]amino}-3-hydroxypropanoyl)-1-piperazinyl]carbonyl}-3-methylbutyl)-1-benzothiophene-2-carboxamide] was tested, and the EC50 (TRPV4 [3]) was 231 nM.
